We go through 1 compound from patent publication US20260069693A1, “UROLITHINS AND T-CELL MEDIATED IMMUNE RESPONSE” (priority 2022, published 2026).

In one assay the test system is APTK-s.c. tumors. Briefly: subcutaneous APTK tumors in Rag1-/- mice, UA diet. To be noted: absence of mature T and B cells; UA-containing vs control food.
A further assay has as its system APTK-induced tumors. Briefly: subcutaneous APTK tumors in Pink1-/- mice, UA diet. The class given is in vivo. The text has this:
UA activates mitophagy in myocytes and hippocampal neurons via a Pink1/Parkin mediated stress-response (D'Amico et al., 2021). […] Moreover, UA stabilized Parkin protein expression (FIG. 4G). To functionally confirm the dependence of UA induced TSCM formation on Pink1/Parkin mediated mitophagy, the inventors activated Pink1^−/− T cells in the presence or absence of UA. Loss of Pink1 prevented the UA-induced lysosome formation as well as the decrease in mitochondrial content (FIG. 4H, I).
Tumors were minced and digested with Tumor & Tissue Dissociation Reagent (BD Horizon) for 30 min. The remaining organ pieces were filtered through a 70 μm cell strainer. Cells were then washed with PBS 1% BSA and 2 mM EDTA. Immune cells were enriched on a 30%/40%/75% Percoll gradient after a 1700 rpm 17 min centrifugation. Then, tumor immune filtrates or activated T cells were stained with Fixable Viability Dye-eF780 (65-0865-14; eBioscience), αCD45-FITC (30-F11; 11-0451-85; eBioscience), αCD11b-BV650 (M1/70; 56340; BD) α-CD11C-BV785 (HL3; 563735; BD), αLy6G-BV605 (53-6.7; 563005; BD), αLy6C-AF700 (HK1.4; 128024; Biolegend), αF4/80-PE (BM8; 12-4801-82, eBioscience), αPD-L1-PECy7 (MIH5; 25-5982-80, eBioscience); or with Fixable Viability Dye-eF780 (ebioscience), αCD45-BV786 (30-F11; 564225; BD), αCD4-BUV496 (GK1.5; 564667; BD), αCD8-BV605 (100744; Biolegend), αPD1-APC (J43; 17-9985-82; eBioscience), αTIM-3-PECy7 (RMT3-23; 119715; Biolegend), αCTLA4-PE (UC10-4B9; 106305; Biolegend) and αLag3-BV421 (C9B7W; 125221, Biolegend); or with Fixable Viability Dye-eF780 (eBioscience), αCD4-FITC (H129.19; 553650; BD), αCD8-APC (53-6.7; 17-0081-83; eBioscience), αCD44-AF400 (IM7; 103026; Biolegend), αCD62L-BV785 (MEL-14; 104440; Biolegend), αSca-1-PerCP-Cy5.5 (D7; 45-5981-82; eBioscience), αCD95-PE (Jo2; 554258; BD); or with Fixable Viability Dye-eF780 (eBioscience), αCD8-BV650 (53-6.7; 563234; BD), αCD4-BUV496 (GK1.5; 564667; BD), αCD127-APC (A7R34; 17-1271-82; eBioscience), αCD95-FITC (SA367H8; 152605; Biolegend), αCD44-AF400 (IM7; 103026; Biolegend), αCD62L-BV785 (MEL-14; 104440; Biolegend), αSca-1-PerCP-Cy5.5 (D7; 45-5981-82; eBioscience) followed by intracellular staining of αTCF1-PE (S33-966; 564217; BD), or PGC-1α (sc-518025; D-5; santa cruz), or αCyclinD1 (MA5-28534, DCS-6; Invitrogen) with transcription factor buffer set kit (BD Biosciences). To study cytokine expression, tumor immune infiltrates were stimulated ex vivo with 20 ng/ml PMA and 1 μg/ml Ionomycin (Sigma) for 3 h in T cell activation medium with Brefeldin A (Biolegend). For T cell in vitro activation experiments over several days, Brefeldin A was added to the medium for the last 3 hours.

The test system of another assay is CD19-CAR T cells. The class given is cell-based, human.
A further assay relates to T cells. Briefly: qPCR and RNA sequencing of stimulated T cells. The class given is cell-based, mice. How it is done:
To explore the downstream events linking mitophagy to TSCM formation, the inventors performed RNA sequencing to globally assess differential gene expression in T cells exposed for 48 hours to either DMSO or UA in vitro. […] Indeed, when the inventors applied ICG001 to pharmacologically block TCF-1, UA-induced TSCM formation in vitro was abrogated (FIG. 5D-E).
In vitro activated T cells following the indicated treatments were collected followed by RNA isolation using the RNeasy kit (Qiagen). RNA quality and concentration were determined by Nanodrop spectrophotometer. Complementary DNA was generated using SuperScript II reverse transcriptase (ThermoFisher). A total reaction volume of 13 μl RNA was incubated with oligoDT and DNTP Mix (1 μl each) for 5 min at 65° C. The samples were allowed to cool down for 5 min on ice, and to each 4 μl of 5× First strand buffer, 1 μl DTT, 1 μl RNAseOUT™ and 1 μl Superscript II reverse transcriptase were added. Samples were incubated for 1 h at 42° C. Synthesized cDNA was 1:5 diluted in nuclease free water before being processed into gene expression analysis with the 96 wells StepOne real time PCR Machine (Applied biosystems) using 2× FastStart Universal SYBR Green Master Mix (Roche). CT values were normalized to the gene indicated in the respective figures. The following primers were used: […]
For RNA isolation of in vitro stimulated T cells, RNeasy mini kit (Qiagen) was used. 200 ng of total RNA was used to prepare the library for RNA sequencing. Coexpression patterns of genes associated with effector and memory cell fate, immune checkpoints, effector molecules, and adhesion/homing were chosen based on the literature as depicted in the main text. Data underwent z-score normalization for display as described previously (Xiong et al., 2020). Upstream regulator analysis was performed using Ingenuity pathway analysis software, using a cut-off log 2fold change of 1 and a p value of […].

For the next assay, the system named is APTK organoids. The experiment in a line: APTK tumor organoids incubated with UA, flow cytometry.
The mark [1] stands for this setting: increasing concentrations of UA (25-50 μM).

As for `O=c1oc2cc(O)ccc2c2ccc(O)cc12` [UA, Urolithin A], the “tumor growth (protective effect of UA)” value in the assay on APTK-s.c. tumors is given as “abrogated the protective effect of UA”. Besides, the “tumor growth (tumor suppressive effect of UA)” value in the assay with APTK-induced tumors (Pink1 deletion, UA-containing vs control diet) was “abrogated the tumor suppressive effect of UA”. In the assay with APTK-induced tumors (UA vs control diet), the “TCF-1 expression in CD8+ TIL” value is “did not exhibit differences” and the “exhaustion markers in CD8+ TIL” value was “did not exhibit differences”. Also, in the assay with APTK-induced tumors (UA vs control diet, PMA/Ionomycin), the “ex vivo cytokine release of CD8+ TIL” value is listed as “did not exhibit differences”. Also, in the assay with CD19-CAR T cells, the “gene delivery into CD8+ cells” value is reported as “did not impair”. In the assay on CD19-CAR T cells (UA supplementation), the “Markers of exhaustion of CAR T cells” value is “not affected”. The “CAR expressing TSCM cells” value in the assay on CD19-CAR T cells (three days post transduction, UA vs DMSO) was “markedly increased”. Further, the “CAR expressing TSCM cells, share of CD8+ cells” value in the assay on CD19-CAR T cells (three days post transduction, upon UA exposure) was “about 60%”. Further, the “transcription of several Wnt target genes” value in the assay on T cells is “increased transcription”. In the assay with T cells (RNA sequencing, 48 h), the “expression of Cd27, Ccr7 and adhesion genes” value is “enhancing expression”; the “expression of effector fate associated genes Prdm1 and Id2” value is given as “reduced expression”; the “expression of genes that code for immune checkpoints and effector molecules” value was “reduced the expression”; the “genes involved in memory formation such as Tcf7, Bach2 and Bcl6” value is on record as “special enrichment”. Also, in the assay with T cells (qPCR, 24 h, UA 50 μM), the Atg5 gene expression result was “significant upregulation”, the Atg7 gene expression result is listed as “significant upregulation”, the Lamp2 gene expression entry is “significant upregulation” and the Pink1 gene expression entry is “significant upregulation”. Also, the p62 gene expression result in the assay on T cells (qPCR, 24 h, UA 50 μM) was “significant upregulation”. Moreover, the “MHC-I (antigen presentation)” value in the assay on APTK organoids (UA 25-50 μM, 48 h) was “marked upregulation”. In the assay with APTK organoids (setting [1]), the MitoTracker staining entry is “concomitant loss” and the “formation of lysosomes (lysotracker)” value is “dose-dependent formation”.
